pIC50: −log10 of the molar value.
Columns and labels:
[1] = cells; details: Homo sapiens, MRC-5 SV2, 72 h
Description: (§1) Cytotoxicity against human MRC5 SV2 cells assessed as reduction in cell viability incubated for 3 days by fluorimetry

[2] = test system: Macrophage; assay: cells; details: Mus musculus, 72 h
Description: (§2) Cytotoxicity against mouse peritoneal Macrophage cells assessed as reduction in cell viability incubated for 3 days by fluorimetry

[3] = in vitro; details: human, MRC5 SV2 cells
Description: as §1

[4] = in vitro; details: human, liver microsomes
Description: Metabolic stability in human liver microsomes assessed as intrinsic clearance at 0.5 uM incubated for 30 mins by LC-MS/MS analysis

[5] = in vitro; details: mouse, liver microsomes
Description: Metabolic stability in mouse liver microsomes assessed as intrinsic clearance at 0.5 uM incubated for 30 mins by LC-MS/MS analysis

[6] = physchem; details: buffer, pH 7.4
Description: Lipophilicity, logD of compound at pH 7.4 by HPLC analysis

[7] = in vitro; details: mouse, peritoneal macrophages
Description: as §2

[8] = in vitro; details: PAMPA
Description: Effective permeability of compound by PAMPA assay

[9] = in vitro; details: mouse, liver microsomes; remark: listed apart in the source
Description: Metabolic stability in mouse liver microsomes assessed as fraction unbound at 0.5 uM incubated for 30 mins by LC-MS/MS analysis

[10] = test system: Trypanosoma cruzi; assay: microbe, parasite or virus in culture; details: Tulahuen CL2, MRC-5 SV2, 168 h
Description: Antitrypanosomal activity against Trypanosoma cruzi Tulahuen CL2 amastigotes infected in human MRC5 SV2 cells incubated for 7 days by chlorophenol red beta-D-galactopyranoside substrate based spectrophotometric assay

[11] = test system: Trypanosoma brucei; assay: microbe, parasite or virus in culture; details: Squib 427, 72 h
Description: Antitrypanosomal activity against Trypanosoma brucei Squib 427 assessed as reduction in parasite growth incubated for 72 hrs by resazurin dye based fluorimetric analysis

[12] = test system: Trypanosoma brucei rhodesiense; assay: microbe, parasite or virus in culture; details: STIB900, 72 h
Description: Antiprotozoal activity against Trypanosoma brucei rhodesiense STIB900 trypomastigotes incubated for 72 hrs by resazurin dye based fluorimetric analysis

[13] = test system: Leishmania infantum; assay: microbe, parasite or virus in culture; details: for pIC50: MHOM/MA(BE)/67/ITMAP263, 120 h; for IC90: MHOM/MA(BE)/67/ITMAP263, in Mus musculus, 120 h
Description: Antileishmanial activity against amastigote stage of Leishmania infantum MHOM/MA(BE)/67/ITMAP263 infected in mouse peritoneal macrophage assessed as parasite growth inhibition incubated for 5 days by Giemsa staining based assay

SMILES | pIC50 [1] | pIC50 [2] | IC90 at 72 h [3] [µM] | CLint scaled at 0.5 h, 0.5 µM [4] [mL/min/kg] | microsomal CLint at 0.5 h, 0.5 µM [4] [µL/min/mg] | CLint scaled at 0.5 h, 0.5 µM [5] [mL/min/kg] | microsomal CLint at 0.5 h, 0.5 µM [5] [µL/min/mg] | logD [6] | IC90 at 72 h [7] [µM] | Papp [8] [×10⁻⁶ cm/s] | fraction unbound at 0.5 h, 0.5 µM [9] | pIC50 [10] | IC90 [10] [µM] | pIC50 [11] | IC90 [11] [µM] | pIC50 [12] | IC90 [12] [µM] | pIC50 [13] | IC90 [13] [µM]
O=C(CCc1nc2cccnc2n1CCO)Nc1ccccc1 | 4.19 | 4.19 | 64 | < 35 | < 23 | 281 | 62.1 | 1.85 | 64 | 3.98 | 0.705 | 4.19 | 64 | 4.19 | 64 | 4.19 | 64 | 4.19 | 64
Cc1nc(C)c(C(=O)N2CCCC(c3cc4ncccc4[nH]3)C2)s1 (centres undefined) | 4.19 | 4.19 | 64 | 29.5 | 26.2 | 774 | 233 | 2.3 | 64 | 2.88 | 0.96 | 4.19 | 64 | 4.19 | 64 | 4.19 | 64 | 4.19 | 64
O=C1c2ccccc2CN1CCc1cc2ncccc2[nH]1 | 4.19 | 4.19 | 64 | 119 | 69.1 | 1090 | 213 | 2.19 | 64 | 0.504 | 0.626 | 4.19 | 64 | 4.19 | 64 | 4.19 | 64 | 4.19 | 64
Nc1cc(C2CCCN(C(=O)c3ccccc3)C2)[nH]n1 (centres undefined) | 4.19 | 4.19 | 64 | < 36.7 | < 23 | < 108 | < 23 | 1.09 | 64 | 1.42 | 0.684 | 4.19 | 64 | 4.19 | 64 | 4.19 | 64 | 4.19 | 64
Nc1cc(C2CCCN(C(=O)c3cc(C(F)(F)F)no3)C2)[nH]n1 (centres undefined) | 4.19 | 4.19 | 64 | < 26.7 | < 23 | 175 | 54.3 | 1.77 | 64 | 3.76 | 0.991 | 4.19 | 64 | 4.19 | 64 | 4.19 | 64 | 4.19 | 64
CC(C)(C)OC(=O)N1CCCC(c2cn3cccnc3n2)C1 (centres undefined) | 4.19 | 4.19 | 64 | 49 | 38 | 3290 | 861 | 2.58 | 64 | 7.69 | 0.836 | 4.19 | 64 | 4.19 | 64 | 4.19 | 64 | 4.19 | 64

Source: ChEMBL document CHEMBL4342426, “Structure-activity relationship of 4-azaindole-2-piperidine derivatives as agents against Trypanosoma cruzi” (Bioorg Med Chem Lett, 2020)
